Assay results: patent publication US11524968B2, “Heterocyclic compound as a protein kinase inhibitor” (HK inno.N Corporation, priority 2017, dated 2022)

Target: JAK1 (Homo sapiens (Human), UniProt P23458)
Test: Analysis of JAK1 activity inhibition ability (ADP-Glo Kinase Assay)
Type: biochemical
Conditions: JAK1 enzyme, ADP-Glo luminescence, ATP 250 uM, IRS-itide substrate, 30° C. 40 minutes; read-out: IC50
How it was run: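 ADP-Glo luminescence read-out of ADP production, with IC50 taken as the concentration halving JAK1 activity relative to control. Enzyme was incubated 40 min at 30 °C with compound, IRS-itide (40 ng/mL) and ATP (250 uM), concentrations as prepared in pH 7.5 Tris-HCl/MgCl2/BSA/DTT buffer.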

Sequence of JAK1 (P23458 whole entry): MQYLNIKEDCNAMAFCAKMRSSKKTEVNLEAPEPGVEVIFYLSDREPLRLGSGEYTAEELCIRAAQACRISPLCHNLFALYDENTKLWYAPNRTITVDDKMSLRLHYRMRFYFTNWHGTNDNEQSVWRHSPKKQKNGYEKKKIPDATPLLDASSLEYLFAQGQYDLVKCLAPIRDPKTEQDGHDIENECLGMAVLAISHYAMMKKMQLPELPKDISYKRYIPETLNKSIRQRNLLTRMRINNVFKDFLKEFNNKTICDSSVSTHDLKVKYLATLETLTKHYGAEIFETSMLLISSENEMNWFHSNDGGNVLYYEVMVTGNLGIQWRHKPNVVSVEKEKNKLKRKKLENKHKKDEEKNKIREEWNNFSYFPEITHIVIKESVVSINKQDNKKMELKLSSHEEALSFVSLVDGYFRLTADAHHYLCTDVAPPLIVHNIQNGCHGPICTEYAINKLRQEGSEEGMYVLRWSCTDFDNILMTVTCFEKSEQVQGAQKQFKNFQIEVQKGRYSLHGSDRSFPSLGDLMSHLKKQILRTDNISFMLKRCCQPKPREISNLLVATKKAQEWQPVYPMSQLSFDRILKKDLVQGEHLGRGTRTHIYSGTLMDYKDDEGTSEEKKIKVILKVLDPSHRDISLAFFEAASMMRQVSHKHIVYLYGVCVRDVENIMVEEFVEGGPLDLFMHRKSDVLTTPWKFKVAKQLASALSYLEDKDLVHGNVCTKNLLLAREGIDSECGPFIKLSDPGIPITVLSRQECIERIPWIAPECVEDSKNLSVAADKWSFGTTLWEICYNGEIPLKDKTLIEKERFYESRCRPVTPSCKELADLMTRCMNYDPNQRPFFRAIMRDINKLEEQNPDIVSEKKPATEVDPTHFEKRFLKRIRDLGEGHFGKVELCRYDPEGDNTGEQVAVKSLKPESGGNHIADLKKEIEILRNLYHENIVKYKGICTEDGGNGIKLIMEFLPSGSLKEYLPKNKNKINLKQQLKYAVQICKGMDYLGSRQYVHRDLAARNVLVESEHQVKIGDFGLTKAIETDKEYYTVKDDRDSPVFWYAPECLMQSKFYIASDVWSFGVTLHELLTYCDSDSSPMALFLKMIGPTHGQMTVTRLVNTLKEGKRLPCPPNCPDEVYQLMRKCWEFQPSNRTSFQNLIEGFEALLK

CCc1cc(-c2cc(NC(=O)C3CC3)nc3[nH]ccc23)ccc1NS(=O)(=O)CC [Example 124, N-(4-(3-ethyl-4-(ethylsulfonamido)phenyl)-1H-pyrrolo[2,3-b]pyridin-6-yl)cyclopropanecarboxamide] and CCCS(=O)(=O)Nc1ccc(-c2cc(NC(=O)C3CC3)nc3[nH]ccc23)cc1CC [Example 126, N-(4-(3-ethyl-4-(propylsulfonamido)phenyl)-1H-pyrrolo[2,3-b]pyridin-6-yl)cyclopropanecarboxamide] cannot be ordered by IC50: less than 20 nM for the first, less than 20 nM for the second.

CCc1cc(-c2cc(NC(=O)C3CC3)nc3[nH]ccc23)ccc1NS(=O)(=O)C1CC1 [Example 125, N-(4-(4-(cyclopropanesulfonamido)-3-ethylphenyl)-1H-pyrrolo[2,3-b]pyridin-6-yl)cyclopropanecarboxamide] and CCc1cc(-c2cc(NC(=O)C3CC3)nc3[nH]ccc23)ccc1NS(=O)(=O)C1CCC1 [Example 128, N-(4-(4-(cyclobutanesulfonamido)-3-ethylphenyl)-1H-pyrrolo[2,3-b]pyridin-6-yl)cyclopropanecarboxamide] cannot be ordered by IC50: less than 20 nM for the first, less than 20 nM for the second.

CCCCS(=O)(=O)Nc1ccc(-c2cc(NC(=O)C3CC3)nc3[nH]ccc23)cc1CC [Example 127, N-(4-(4-(butylsulfonamido)-3-ethylphenyl)-1H-pyrrolo[2,3-b]pyridin-6-yl)cyclopropanecarboxamide] and CCCS(=O)(=O)Nc1ccc(-c2cc(NC(=O)C3CC3)nc3[nH]ccc23)c(C)c1C [Example 132, N-(4-(2,3-dimethyl-4-(propylsulfonamido)phenyl)-1H-pyrrolo[2,3-b]pyridin-6-yl)cyclopropanecarboxamide] fall in the same range of IC50: 20 to 200 nM for the first, 20 to 200 nM for the second.

CS(=O)(=O)Nc1ccc(-c2cc(NC(=O)C3CC3)nc3[nH]ccc23)cc1-c1ccccc1 [Example 129, N-(4-(6-(methylsulfonamido)-[1,1′-biphenyl]-3-yl)-1H-pyrrolo[2,3-b]pyridin-6-yl)cyclopropanecarboxamide] and O=C(Nc1cc(-c2ccc(NS(=O)(=O)C3CC3)c(-c3ccccc3)c2)c2cc[nH]c2n1)C1CC1 [Example 130, N-(4-(6-(cyclopropanesulfonamido)-[1,1′-biphenyl]-3-yl)-1H-pyrrolo[2,3-b]pyridin-6-yl)cyclopropanecarboxamide] cannot be ordered by IC50: greater than 200 nM for the first, greater than 200 nM for the second.

First: CCS(=O)(=O)Nc1ccc(-c2cc(NC(=O)C3CC3)nc3[nH]ccc23)c(C)c1C [Example 131, N-(4-(4-(ethylsulfonamido)-2,3-dimethylphenyl)-1H-pyrrolo[2,3-b]pyridin-6-yl)cyclopropanecarboxamide]
Second: Cc1c(NS(=O)(=O)C2CC2)ccc(-c2cc(NC(=O)C3CC3)nc3[nH]ccc23)c1C [Example 133, N-(4-(4-(cyclopropanesulfonamido)-2,3-dimethylphenyl)-1H-pyrrolo[2,3-b]pyridin-6-yl)cyclopropanecarboxamide]
The IC50 of the first is higher: 20 to 200 nM for the first, less than 20 nM for the second. The second is the more potent here.

CCS(=O)(=O)Nc1ccc(-c2cc(NC(=O)C3CC3)[n+]([O-])c3[nH]ccc23)c(C)c1 [Example 134, 6-(cyclopropanecarboxamido)-4-(4-(ethylsulfonamido)-2-methylphenyl)-1H-pyrrolo[2,3-b]pyridine 7-oxide] and CCc1cc(-c2cc(NC(=O)C3CC3)[n+]([O-])c3[nH]ccc23)ccc1NS(=O)(=O)CC [Example 135, 6-(cyclopropanecarboxamido)-4-(3-ethyl-4-(ethylsulfonamido)phenyl)-1H-pyrrolo[2,3-b]pyridine 7-oxide] fall in the same range of IC50: 20 to 200 nM for the first, 20 to 200 nM for the second.

Compared with Cc1c(NS(=O)(=O)C2CC2)ccc(-c2cc(NC(=O)C3CC3)[n+]([O-])c3[nH]ccc23)c1C [Example 136, 6-(cyclopropanecarboxamido)-4-(4-(cyclopropanesulfonamido)-2,3-dimethylphenyl)-1H-pyrrolo[2,3-b]pyridine 7-oxide], CCc1cc(NS(=O)(=O)CC2(C#N)CC2)ccc1-c1cc(NC(=O)C2CC2)[n+]([O-])c2[nH]ccc12 [Example 137, 4-(4-(((1-cyanocyclopropyl)methyl)sulfonamido)-2-ethylphenyl)-6-(cyclopropanecarboxamido)-1H-pyrrolo[2,3-b]pyridine 7-oxide] is lower in IC50: 20 to 200 nM for the first, less than 20 nM for the second.

CCc1cc(-c2cc(NC(=O)C3CC3)nc3[nH]ccc23)cc(CC)c1NS(=O)(=O)CC1(C#N)CC1 [Example 138, N-(4-(4-(((1-cyanocyclopropyl)methyl)sulfonamido)-3,5-diethylphenyl)-1H-pyrrolo[2,3-b]pyridin-6-yl)cyclopropanecarboxamide] and N#CC1(CS(=O)(=O)Nc2ccc(-c3cc(NC(=O)C4CC4)nc4[nH]ccc34)c(C(=O)O)c2)CC1 [Example 143] cannot be ordered by IC50: greater than 200 nM for the first, greater than 200 nM for the second.

CCc1cc(-c2cc(NC(=O)C3CC3)nc3[nH]ccc23)cc(CC)c1NS(=O)(=O)c1ccc(F)c(F)c1 [Example 139, N-(4-(4-((3,4-difluorophenyl)sulfonamido)-3,5-diethylphenyl)-1H-pyrrolo[2,3-b]pyridin-6-yl)cyclopropanecarboxamide] and N#Cc1cc(NS(=O)(=O)c2ccc(F)c(F)c2)ccc1-c1cc(NC(=O)C2CC2)nc2[nH]ccc12 [Example 146, N-(4-(2-cyano-4-((3,4-difluorophenyl)sulfonamido)phenyl)-1H-pyrrolo[2,3-b]pyridin-6-yl)cyclopropanecarboxamide] cannot be ordered by IC50: greater than 200 nM for the first, greater than 200 nM for the second.

CCS(=O)(=O)Nc1ccc(-c2cc(NC(=O)C3CC3)nc3[nH]ccc23)c(C(=O)OC)c1 [Example 140, methyl 2-(6-(cyclopropanecarboxamido)-1H-pyrrolo[2,3-b]pyridin-4-yl)-5-(ethylsulfonamido)benzoate] and CCCS(=O)(=O)Nc1ccc(-c2cc(NC(=O)C3CC3)nc3[nH]ccc23)c(C(=O)OC)c1 [Example 141, methyl 2-(6-(cyclopropanecarboxamido)-1H-pyrrolo[2,3-b]pyridin-4-yl)-5-(propylsulfonamido)benzoate] cannot be ordered by IC50: greater than 200 nM for the first, greater than 200 nM for the second.

COC(=O)c1cc(NS(=O)(=O)CC2(C#N)CC2)ccc1-c1cc(NC(=O)C2CC2)nc2[nH]ccc12 [Example 142, methyl 5-(((1-cyanocyclopropyl)methyl)sulfonamido)-2-(6-(cyclopropanecarboxamido)-1H-pyrrolo[2,3-b]pyridin-4-yl)benzoate] and N#Cc1cc(NS(=O)(=O)CC2(C#N)CC2)ccc1-c1cc(NC(=O)C2CC2)nc2[nH]ccc12 [Example 147, N-(4-(2-cyano-4-(((1-cyanocyclopropyl)methyl)sulfonamido)phenyl)-1H-pyrrolo[2,3-b]pyridin-6-yl)cyclopropanecarboxamide] cannot be ordered by IC50: greater than 200 nM for the first, greater than 200 nM for the second.

CCS(=O)(=O)Nc1ccc(-c2cc(NC(=O)C3CC3)nc3[nH]ccc23)c(C#N)c1 [Example 144, N-(4-(2-cyano-4-(ethylsulfonamido)phenyl)-1H-pyrrolo[2,3-b]pyridin-6-yl)cyclopropanecarboxamide] and CCCS(=O)(=O)Nc1ccc(-c2cc(NC(=O)C3CC3)nc3[nH]ccc23)c(C#N)c1 [Example 145, N-(4-(2-cyano-4-(propylsulfonamido)phenyl)-1H-pyrrolo[2,3-b]pyridin-6-yl)cyclopropanecarboxamide] fall in the same range of IC50: 20 to 200 nM for the first, 20 to 200 nM for the second.

Compared with CCS(=O)(=O)Nc1ccc(-c2cc(NC(=O)C3CC3)nc3[nH]ccc23)cn1 [Example 148, N-(4-(6-(ethylsulfonamido)pyridin-3-yl)-1H-pyrrolo[2,3-b]pyridin-6-yl)cyclopropanecarboxamide], CCS(=O)(=O)Nc1ccc(-c2cc(NC(=O)C3CC3)nc3[nH]ccc23)nc1F [Example 149, N-(4-(5-(ethylsulfonamido)-6-fluoropyridin-2-yl)-1H-pyrrolo[2,3-b]pyridin-6-yl)cyclopropanecarboxamide] is higher in IC50: 20 to 200 nM for the first, greater than 200 nM for the second.

Compared with CCCS(=O)(=O)Nc1ccc(-c2cc(NC(=O)C3CC3)nc3[nH]ccc23)nc1F [Example 150, N-(4-(6-fluoro-5-(propylsulfonamido)pyridin-2-yl)-1H-pyrrolo[2,3-b]pyridin-6-yl)cyclopropanecarboxamide], CCCS(=O)(=O)NC1CC=C(c2cc(NC(=O)C3CC3)nc3[nH]ccc23)CC1 (stereo not shown) [Example 152, N-(4-(4-(propylsulfonamido)cyclohex-1-en-1-yl)-1H-pyrrolo[2,3-b]pyridin-6-yl)cyclopropanecarboxamide] is lower in IC50: greater than 200 nM for the first, 20 to 200 nM for the second.

First: CCS(=O)(=O)NC1CC=C(c2cc(NC(=O)C3CC3)nc3[nH]ccc23)CC1 (stereo not shown) [Example 151, N-(4-(4-(ethylsulfonamido)cyclohex-1-en-1-yl)-1H-pyrrolo[2,3-b]pyridin-6-yl)cyclopropanecarboxamide]
Second: N#CCCS(=O)(=O)NC1CC=C(c2cc(NC(=O)C3CC3)nc3[nH]ccc23)CC1 (stereo not shown) [Example 155, N-(4-(4-((2-cyanoethyl)sulfonamido)cyclohex-1-en-1-yl)-1H-pyrrolo[2,3-b]pyridin-6-yl)cyclopropanecarboxamide]
The IC50 of the first is higher: 20 to 200 nM for the first, less than 20 nM for the second. The second is the more potent here.

O=C(Nc1cc(C2=CCC(NS(=O)(=O)C(F)(F)F)CC2)c2cc[nH]c2n1)C1CC1 (stereo not shown) [Example 153, N-(4-(4-((trifluoromethyl)sulfonamido)cyclohex-1-en-1-yl)-1H-pyrrolo[2,3-b]pyridin-6-yl)cyclopropanecarboxamide] and O=C(Nc1cc(C2=CCC(NS(=O)(=O)C3CC3)CC2)c2cc[nH]c2n1)C1CC1 (stereo not shown) [Example 154, N-(4-(4-(cyclopropanesulfonamido)cyclohex-1-en-1-yl)-1H-pyrrolo[2,3-b]pyridin-6-yl)cyclopropanecarboxamide] fall in the same range of IC50: 20 to 200 nM for the first, 20 to 200 nM for the second.

N#CCC1(CS(=O)(=O)NC2CC=C(c3cc(NC(=O)C4CC4)nc4[nH]ccc34)CC2)CC1 (stereo not shown) [Example 156, N-(4-(4-(((1-(cyanomethyl)cyclopropyl)methyl)sulfonamido)cyclohex-1-en-1-yl)-1H-pyrrolo[2,3-b]pyridin-6-yl)cyclopropanecarboxamide] and N#CC1(CS(=O)(=O)NC2CC=C(c3cc(NC(=O)C4CC4)nc4[nH]ccc34)CC2)CC1 (stereo not shown) [Example 157, N-(4-(4-(((1-cyanocyclopropyl)methyl)sulfonamido)cyclohex-1-en-1-yl)-1H-pyrrolo[2,3-b]pyridin-6-yl)cyclopropanecarboxamide] cannot be ordered by IC50: less than 20 nM for the first, less than 20 nM for the second.
